Reference: patent US5998366A, “Method for ameliorating glutamic acid decarboxylase associated autoimmune disorders” (The Regents of the University of California, priority 1997, dated 1999)

What was measured:
[1] = test system: spleen cells of treated female NOD mice; assay: Proliferative splenic T-cell responses to antigens after tolerance induction; assay type: in vivo; details: Table 8A: i.v. at 3 weeks, tested at 12 weeks
[2] = test system: spleen cells of treated female NOD mice; assay: as above; assay type: in vivo
Experimental: (§1) NOD (Taconic farms) and BALB/c mice (Jackson Laboratories) were kept under specific pathogen free conditions. The mice were sacrificed at the ages indicated and the spleen cells were tested directly ex vivo for their proliferative recall response to antigen. Single cell suspensions of spleen cells were plated at 1×10^6 cells per well in 96 well microtiter plates in 200 μl serum free HL-1 medium (Ventrex) that was supplemented with 2 mM glutamine with or without 10 μg/ml antigen (or 7 μM peptide) in triplicate cultures. During the last 16 h of the 72 h culture period, 1 μCi[^3 H]-thymidine was added per well. Incorporation of label was measured by liquid scintillation counting.
1. In these experiments female NOD mice were intravenously injected at 3 weeks of age with 50 μg GAD, μ-galactosidase, mycobacterial hsp65 (m-hsp) or 0.1 μg of the immunodominant hsp peptide (hsp-p), in PBS. At 12 weeks of age, mice were examined for insulitis and autoantigen reactive T-cells. At this age both indications are established in untreated NOD mice. Pancreatic tissue sections were stained by immunoperoxidase techniques for insulin and were counterstained with hematoxylin. Insulitis was scored in a blinded manner by examining 54 to 87 islets on 5 interrupted tissue sections from each pancreas. […] Data in Table 8 are expressed as the average [^3 H]-thymidine label (cpm) incorporated in triplicate cultures. […]

[3] = test system: spleen cells of NOD mice; assay: Proliferative recall response of spleen cells to β-cell antigens, by age; assay type: cell-based
Experimental: as §1
Both human GAD65 (Bu, et al., Proc. Natl. Acad. Sci., 89:2115-2119, 1992) and E. coli β-gal (control) were purified from recombinant bacteria on the basis of a hexahistidine tag which allows their rapid affinity purification by metal affinity chromatography (Hochuli, et al., Bio/Technology, 6:1321-1325, 1988). Bovine CPH was the generous gift of L. Fricker (Albert Einstein Col. Med.) and human insulin was purchased from Eli Lilly.

[4] = test system: female NOD mice; assay: Insulitis score after tolerance induction; assay type: in vivo; details: examined at 12 weeks
Experimental: (§2) 1. In these experiments female NOD mice were intravenously injected at 3 weeks of age with 50 μg GAD, μ-galactosidase, mycobacterial hsp65 (m-hsp) or 0.1 μg of the immunodominant hsp peptide (hsp-p), in PBS. At 12 weeks of age, mice were examined for insulitis and autoantigen reactive T-cells. At this age both indications are established in untreated NOD mice. Pancreatic tissue sections were stained by immunoperoxidase techniques for insulin and were counterstained with hematoxylin. Insulitis was scored in a blinded manner by examining 54 to 87 islets on 5 interrupted tissue sections from each pancreas. Proliferative splenic T-cell responses induced by various antigens were performed as described above in Example 4. Data in Table 8 are expressed as the average [^3 H]-thymidine label (cpm) incorporated in triplicate cultures.
2. In a second set of experiments neonatal female NOD mice were injected intraperitoneally IFA with peptide 11, a mixture of peptides 34 and 35 plus IFA, or with IFA alone and at 12 weeks of age the mice were examined for insulitis and autoantigen reactive T-cells as in Example 6.1. Proliferative splenic T-cell responses induced by the various antigens were performed as in Example 4, and data in Table 8B are expressed as the average [^3 H]-thymidine label (cpm) incorporated in triplicate cultures.
3. In a third set of experiments female NOD mice were intravenously injected at three weeks of age with peptide 11 (control), a mixture of peptides 34 and 35 plus IFA, or with HEL peptides and at 12 weeks of age the mice were examined for insulitis and autoantigen reactive T-cells as in Example 6.1. Proliferative splenic T-cell responses induced by the various antigens were performed as in Example 4, and data in Table 8C are expressed as the average [^3 H]-thymidine label (cpm) incorporated in triplicate cultures.

[5] = test system: female NOD mice; assay: Long-term diabetes incidence, insulitis and βCA reactive T cells after GAD tolerization; assay type: in vivo
Experimental: as §2
Five GAD treated mice were sacrificed at 30 weeks of age.

[6] = test system: female NOD mice; assay: GAD immunization of 8 week old NOD mice, onset of IDDM; assay type: in vivo
Excerpt: An IPTG inducible T7 expression vector was used to express both human GAD65 and E. coli b galactosidase (β-gal). In IPTG induced recombinant E. coli, GAD and β-gal constitute about 10-20% of the total bacterial protein. However, almost all of the GAD was in inclusion bodies, which could be isolated and extensively washed to obtain material that is about 80% GAD. We then did affinity purifications of GAD and β-gal on the basis of a hexa-histidine "tag" which was attached to GAD during the subcloning process. These extra histidine residues allow the rapid affinity purification (Novagen) of GAD by metal affinity chromatography (Hochuli, et al., Bio Technology, 6:1321-1325, 1988). The inclusion body material is solubilized in 6M guanidine hydrochloride (GHCL), 10 mm β-mercaptoethanol and 1% triton X-100. After binding to the column, the column was extensively washed with GHCL and 8M urea in phosphate buffers. Only the central peak GAD fraction was utilized for subsequent studies. Human GAD65 shares 96% amino acid sequence identity with murine GAD65, with most of the amino acid differences being conservative substitutions.
Breeder mice were purchased from Taconic Farms and housed under specific pathogen-free conditions. Only female NOD mice were used in this study. The average age of IDDM onset in unrelated females in the colony was 22 weeks. Insulitis is generally observed beginning at 4 weeks of age. T cell responses to GAD, HSP, CPH were found by 6 weeks in age. The incidence of IDDM in female mice is 70-90% by one year of age.
At 8 weeks of age, 25 ug GAD or control β-gal. was injected intraperftoneally (ip) in 100 ul of incomplete Freunds adjuvant (IFA). Because there may be a requirement for continual antigen presentation (Ramsdell, et al., Science, 257:1130-1133, 1992) mice were treated again every 6 weeks. Urine glucose levels were monitored twice weekly. After observing above normal glucose in urea, blood glucose levels were monitored twice weekly. Two consecutive blood glucose level readings of […] was considered as IDDM onset, after which the mice were sacrificed and spleen cells were tested as described above in Example 6 for evidence of spleen cell proliferation.

[7] = five treated mice sacrificed at 30 weeks

Substance: GAD: human GAD65 purified from recombinant bacteria on the basis of a hexahistidine tag
- Spleen Cell Proliferation (SI ± SEM) CPH ([1]; recall antigen CPH): 1.1 ± 0.02 SI
- Spleen Cell Proliferation (SI ± SEM) GAD ([1]; recall antigen GAD): 1.6 ± 0.3 SI
- Spleen Cell Proliferation (SI ± SEM) GAD Peptides #17 ([1]; recall antigen GAD peptide #17): 1.0 ± 0.05 SI
- Spleen Cell Proliferation (SI ± SEM) GAD Peptides #34 ([1]; recall antigen GAD peptide #34): 1.2 ± 0.1 SI
- Spleen Cell Proliferation (SI ± SEM) GAD Peptides #35 ([1]; recall antigen GAD peptide #35): 1.0 ± 0.1 SI
- Spleen Cell Proliferation (SI ± SEM) hsp Peptide ([1]; recall antigen hsp peptide): 1.2 ± 0.1 SI
- Spleen Cell Proliferation (SI ± SEM) β-Gal ([1]; recall antigen β-Gal): 1.1 ± 0.03 SI
- share of treated mice with no T-cell reactivity to GAD (complete tolerization) or to other βCAs ([2]; i.v. at 3 weeks, tested at 12 weeks): Seventy five percent
- weak residual GAD reactivity of the mice not completely tolerized ([2]; twenty five percent of the GAD-treated mice): about 3 SI
- T cell proliferation in non-diseased spleen cells ([3]; <4 or >16 week old NOD or control BALB/c or (NOD/BALB/c)F1 spleen cells): did not induce T cell proliferation
- age at which the proliferative T-cell response to the antigen appeared ([3]; female NOD mice, 10 μg/ml antigen or 7 μM peptide, 72 h culture (FIG. 8)): 4 weeks
- Insulitis Score ([4]; Table 8A: i.v. injection at 3 weeks of age in PBS, scale 0-4, mean ± SE): 0.1 ± 0.1
- insulitis score of the completely tolerized mice ([4]; i.v. at 3 weeks): 0.0
- insulitis at 30 weeks of age [5, 7]: four mice were completely free of insulitis
- βCA reactive T cells at 30 weeks of age [5, 7]: free of detectable βCA reactive T cells
- glucose levels of treated mice ([5]; n=17, presently 37 weeks old): normal glucose levels
- age until which 8 of the immunized mice showed no signs of hyperglycemia ([6]; 25 ug ip in IFA at 8 weeks, again every 6 weeks): 36 weeks
- treated mice remaining disease free at 52 weeks of age ([6]; 25 ug ip in IFA at 8 weeks, again every 6 weeks, 10 mice per group): Four
- significance of the delay or prevention of diabetes ([6]; versus β-gal immunized mice): < 0.02
